In patent publication US8541592B2, “Inhibitors of 11-beta-hydroxysteroid dehydrogenase type 1” (Amgen Inc., priority 2005, dated 2013):

Target: T1, 11β-HSD1 (human enzyme) (Homo sapiens, UniProt P28845)
T1 construct: made in house
Experiment: Enzyme Assay (SPA, 3H-cortisone), human enzyme prep
Format: biochemical
Settings: species of enzyme (human or mouse) not stated

T1 sequence (P28845 whole entry): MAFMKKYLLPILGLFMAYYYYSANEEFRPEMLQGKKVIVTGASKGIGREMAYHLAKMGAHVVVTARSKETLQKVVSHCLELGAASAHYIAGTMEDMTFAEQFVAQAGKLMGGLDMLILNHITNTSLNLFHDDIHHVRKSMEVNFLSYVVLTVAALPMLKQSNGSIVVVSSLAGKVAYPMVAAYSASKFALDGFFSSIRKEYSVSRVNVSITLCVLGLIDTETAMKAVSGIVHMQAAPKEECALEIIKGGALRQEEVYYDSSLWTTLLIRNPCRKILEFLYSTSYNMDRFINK

| IC50 [µM] | SMILES |
| --- | --- |
| < 0.02 | CC(C)C1(C)SC(Nc2ccccc2C(F)(F)F)=NC1=O (stereo not shown) [5-methyl-5-(1-methylethyl)-2-((2-(trifluoromethyl)phenyl)amino)-1,3-thiazol-4(5H)-one] |
| < 0.02 | CC1(CC2CCOCC2)SC(N[C@H]2C[C@@H]3CC[C@H]2C3)=NC1=O (stereo partly drawn) [2-((1S,2S,4R)-bicyclo[2.2.1]heptan-2-ylamino)-5-methyl-5-((tetrahydro-2H-pyran-4-yl)methyl)thiazol-4(5H)-one] |
| < 0.02 | CC(C)C1(C)SC(Nc2ccccc2Cl)=NC1=O (stereo not shown) [2-((2-chlorophenyl)amino)-5-methyl-5-(1-methylethyl)-1,3-thiazol-4(5H)-one] |
| < 0.02 | Cc1ccccc1NC1=NC(=O)C(C2CCCC2)S1 (stereo not shown) [2-(o-toluidino)-5-cyclopentylthiazol-4(5H)-one] |
